Data on 2 compounds can be found in ChEMBL document CHEMBL4396866, “Discovery and Structure-Based Optimization of Next-Generation Reversible Methionine Aminopeptidase-2 (MetAP-2) Inhibitors” (J Med Chem, 2019).

Converted amounts (≈) assume the structure as drawn.

Series [1] can be described thus: Drug metabolism in DMSO assessed as oxidation by measuring rac-3-Hydroxy-2-oxo-1-phenylpyrrolidine-3-carboxylic Acid (2-Thiophen-2-ylethyl)amide formation incubated at high temperature under stirring condition for 2 days.
Series [2] can be described thus: Drug metabolism in DMSO assessed as oxidation by measuring rac-3-Hydroxy-2-oxo-1-phenylpyrrolidine-3-carboxylic Acid (2-Thiophen-2-ylethyl)amide formation measured after 2 years.
Series [3] in a line: Toxicity in CD-1 nude mouse xenografted with human U87MG cells at 5 to 20 mg/kg, po administered once daily for 12 days measured during compound dosing. It is filed as organism-based. To be noted: in vivo, 288 h.
Series [4] in a line: Solubility of the compound in FeSSIF. In kind it is physicochemical.
Series [5] in a line: Clearance in mouse at 0.2 mg/kg, iv. In kind it is ADME, organism-based. To be noted: in vivo.
A short description of series [6]: Half life in mouse at 0.2 mg/kg, iv. In kind it is ADME, organism-based. To be noted: in vivo.
The next series has as its system U-87 MG. As to the kind of experiment: Antitumor activity against human U87MG cells xenografted in po dosed CD-1 nude mouse assessed as tumor growth inhibition administered once daily for 12 days. In kind it is functional, organism-based. To be noted: U-87MG ATCC.
Series [7] is described as follows: Oral bioavailability in mouse at 0.5 mg/kg. It is filed as ADME, organism-based. To be noted: in vivo.
Series [8] is described as follows: Stability in mouse liver microsomes assessed per mg protein. In kind it is ADME, Microsome.
Series [9] in a line: Stability in human liver microsomes assessed per mg protein. In kind it is ADME, Microsome.
Series [10] in a line: Passive permeability across apical to basal side in human Caco2 cells. In kind it is ADME, cell-based. To be noted: Caco-2, read-out: permeability.
Series [11] is described as follows: Dissociation constant, pKa of compound. It is filed as physicochemical.
Series [12] is described as follows: Toxicity in CD-1 nude mouse xenografted with human U87MG cells assessed as body weight loss at 5 to 20 mg/kg, po administered once daily for 12 days measured during compound dosing. In kind it is organism-based. To be noted: in vivo, 288 h.
Series [13] in a line: Lipophilicity, log D of the compound at pH 7.4. It is filed as physicochemical. To be noted: buffer.
A short description of series [14]: Solubility of the compound in FaSSIF. It is filed as physicochemical.
Series [15] in a line: Oral bioavailability in mouse at 50 mg/kg. It is filed as ADME, organism-based. To be noted: in vivo.
Series [16] can be described thus: Volume of distribution at steady state in mouse at 0.2 mg/kg, iv. The note with it: in vivo, read-out: Vdss. It is filed as ADME, organism-based.

Take `O=C(NCCc1cccs1)C1CCN(c2ccccc2)C1=O` (configuration not stated): the Drug metabolism entry in series [1] is listed as “Metabolite not detected”; in [2], “Metabolite detected”.

As to `O=C1CCc2cc(N3CC[C@](O)(C(=O)NCc4cc(F)cc(Cl)c4)C3=O)ccc2N1`, the Activity entry in series [3] and in series [12] was “Non-Toxic” throughout. In addition, the values for the solubility in series [4] and in [14] were 334 µg/mL (≈ 773 µM) and 158 µg/mL (≈ 366 µM), respectively. This compound also gave a clearance in series [5] of 3 mL/min/kg. The compound further had a half-life in series [6] of 3 h. For the same compound, in the series on U-87 MG, the TGI result is “Dose-dependent effect”. Besides, the bioavailability in [7] was 35%; in [15] it was 100%. In addition, the Stability in [8] and in series [9] was under 10 µL/min in each case. The Papp A→B in [10] worked out at 16 ×10⁻⁶ cm/s. Further, the pKa in series [11] came out at 11. The logD in [13] stood at 2. Moreover, the Vd in series [16] was 0.78 L/kg.
